Reference: PMC11995724, “Antibiotic target discovery by integrated phenotypic and activity-based profiling of electrophilic fragments” (Cell chemical biology, 2025)

experiment: in vitro; settings: human, hek293t cells

Row | SMILES | viability at 48 h, 25 µM
1 | C=CC(=O)Nc1cccc(-c2nc(COC)no2)c1C [1-J08, N-{3-[3-(methoxymethyl)-1,2,4-oxadiazol-5-yl]-2-methylphenyl}prop-2-enamide] | 79%
2 | C=CC(=O)N(Cc1c(C)cc(Cl)cc1C)CC1COCCO1 (stereo not drawn) [1-J09, N-[(4-chloro-2,6-dimethylphenyl)methyl]-N-[(1,4-dioxan-2-yl)methyl]prop-2-enamide] | 81.4%
3 | C=CC(=O)NCc1cnc(CC(C)C)s1 [1-J10, N-{[2-(2-methylpropyl)-1,3-thiazol-5-yl]methyl}prop-2-enamide] | 84.2%
4 | C=CC(=O)N(Cc1cn(C)cn1)[C@H]1CCCc2ccc(C)cc21 [1-J11, N-[(1S)-7-methyl-1,2,3,4-tetrahydronaphthalen-1-yl]-N-[(1-methyl-1H-imidazol-4-yl)methyl]prop-2-enamide] | 88.8%
5 | C=CC(=O)Nc1nc(C)c(CC(C)C)s1 [1-J12, N-[4-methyl-5-(2-methylpropyl)-1,3-thiazol-2-yl]prop-2-enamide] | 0.934%
6 | C=CC(=O)Nc1cc(OC)ccc1C(=O)N(C)OC [1-J14, N,4-dimethoxy-N-methyl-2-(prop-2-enamido)benzamide] | 74.9%
7 | C=CC(=O)N(Cc1cc(-c2ccco2)n(C)n1)C1CCCCC1 [1-J15, N-cyclohexyl-N-{[5-(furan-2-yl)-1-methyl-1H-pyrazol-3-yl]methyl}prop-2-enamide] | 83.8%
8 | C=CC(=O)Nc1ncc(C2CCCC(C)C2)s1 (stereo not drawn) [1-J16, N-[5-(3-methylcyclohexyl)-1,3-thiazol-2-yl]prop-2-enamide] | 0.801%
9 | C=CC(=O)NCc1cn([C@@H]2COC[C@H]2OC)nn1 [1-J17, N-({1-[(3R,4S)-4-methoxyoxolan-3-yl]-1H-1,2,3-triazol-4-yl}methyl)prop-2-enamide] | 96.5%
10 | C=CC(=O)N1CCCC(S(C)(=O)=O)C1 (stereo not drawn) [1-J18, 1-(3-methanesulfonylpiperidin-1-yl)prop-2-en-1-one] | 63.9%
11 | C=CC(=O)NCc1ccccc1-n1ccc(C)n1 [1-J19, N-{[2-(3-methyl-1H-pyrazol-1-yl)phenyl]methyl}prop-2-enamide] | 126%
12 | C=CC(=O)N1CCN(c2nc(CC)ns2)CC1 [1-J20, 1-[4-(3-ethyl-1,2,4-thiadiazol-5-yl)piperazin-1-yl]prop-2-en-1-one] | 46.2%
13 | C=CC(=O)Nc1nc2c(s1)-c1cc(OC)ccc1CC2 [1-J21, N-{8-methoxy-4H,5H-naphtho[2,1-d][1,3]thiazol-2-yl}prop-2-enamide] | 118%
14 | C=CC(=O)Nc1sc2c(c1C(=O)c1ccc(C)cc1)CCOC2 [1-J22, N-[3-(4-methylbenzoyl)-4H,5H,7H-thieno[2,3-c]pyran-2-yl]prop-2-enamide] | 0.993%
15 | C=CC(=O)NCc1nc(C(=O)O)c(C)s1 [1-K03, 5-methyl-2-[(prop-2-enamido)methyl]-1,3-thiazole-4-carboxylic acid] | 80.8%
16 | C=CC(=O)Nc1cccc(N2CCOCC2)c1 [1-K04, N-[3-(morpholin-4-yl)phenyl]prop-2-enamide] | 74.1%
17 | C=CC(=O)N1CCN(c2nc3ccccc3o2)CC1 [1-K05, 1-[4-(1,3-benzoxazol-2-yl)piperazin-1-yl]prop-2-en-1-one] | 75.6%
18 | C=CC(=O)N[C@@H](C)c1ccccc1OC [1-K06, N-[(1S)-1-(2-methoxyphenyl)ethyl]prop-2-enamide] | 84.3%
19 | C=CC(=O)NCC1CSCCS1 (stereo not drawn) [1-K07, N-[(1,4-dithian-2-yl)methyl]prop-2-enamide] | 78.1%
20 | C=CC(=O)NCc1ccsc1-n1cccc1 [1-K08, N-{[2-(1H-pyrrol-1-yl)thiophen-3-yl]methyl}prop-2-enamide] | 153%
21 | C=CC(=O)N1CCn2cccc2C12COC2 [1-K09, 1-{3',4'-dihydro-2'H-spiro[oxetane-3,1'-pyrrolo[1,2-a]pyrazin]-2'-yl}prop-2-en-1-one] | 80.6%
22 | C=CC(=O)NCc1ccc(OC)cc1 [1-K10, N-[(4-methoxyphenyl)methyl]prop-2-enamide] | 92%
23 | C=CC(=O)Nc1cc(S(=O)(=O)N(C)C)cc(C)c1C [1-K11, N-[5-(dimethylsulfamoyl)-2,3-dimethylphenyl]prop-2-enamide] | 71.3%
24 | C=CC(=O)NC1CCCN(Cc2ccccc2)C1 (stereo not drawn) [1-K12, N-(1-benzylpiperidin-3-yl)prop-2-enamide] | 82.8%
25 | C=CC(=O)N1CCC(NC(=O)Nc2ccccc2OC)CC1 [1-K13, 3-(2-methoxyphenyl)-1-[1-(prop-2-enoyl)piperidin-4-yl]urea] | 106%
26 | C=CC(=O)Nc1cccc(-c2cn(C)nn2)c1 [1-K14, N-[3-(1-methyl-1H-1,2,3-triazol-4-yl)phenyl]prop-2-enamide] | 82.8%
27 | C=CC(=O)Nc1ccc(C(=O)Nc2ccc(N3CCOCC3)nc2)cc1 [1-K15, N-[6-(morpholin-4-yl)pyridin-3-yl]-4-(prop-2-enamido)benzamide] | 1.79%

Row | SMILES | viability at 48 h, 25 µM
28 | C=CC(=O)Nc1ccc(-c2noc(C)n2)cc1 [1-K16, N-[4-(5-methyl-1,2,4-oxadiazol-3-yl)phenyl]prop-2-enamide] | 60.2%
29 | C=CC(=O)NC12CC3(C)CC(C)(CC(O)(C3)C1)C2 [1-K17, N-(3-hydroxy-5,7-dimethyladamantan-1-yl)prop-2-enamide] | 85.3%
30 | C=CC(=O)NC1CCN(S(N)(=O)=O)CC1 [1-K18, N-(1-sulfamoylpiperidin-4-yl)prop-2-enamide] | 93.7%
31 | C=CC(=O)Nc1cc(-c2ccco2)nn1C(C)(C)C [1-K19, N-[1-tert-butyl-3-(furan-2-yl)-1H-pyrazol-5-yl]prop-2-enamide] | 118%
32 | C=CC(=O)N1CC(c2cc(CO)on2)C1 [1-K20, 1-{3-[5-(hydroxymethyl)-1,2-oxazol-3-yl]azetidin-1-yl}prop-2-en-1-one] | 103%
33 | C=CC(=O)NCC(CC)n1nc(C)cc1C (stereo not drawn) [1-K21, N-[2-(3,5-dimethyl-1H-pyrazol-1-yl)butyl]prop-2-enamide] | 108%
34 | C=CC(=O)N1CCC(n2ncc3ccccc32)CC1 [1-K22, 1-[4-(1H-indazol-1-yl)piperidin-1-yl]prop-2-en-1-one] | 94.9%
35 | C=CC(=O)NC1CCN(c2nc(C3CC3)cc(C(F)(F)F)n2)CC1 [1-L03, N-{1-[4-cyclopropyl-6-(trifluoromethyl)pyrimidin-2-yl]piperidin-4-yl}prop-2-enamide] | 108%
36 | C=CC(=O)N1CCC(C(=O)NC(C)(C)c2ccc(F)c(F)c2)CC1 [1-L04, N-[2-(3,4-difluorophenyl)propan-2-yl]-1-(prop-2-enoyl)piperidine-4-carboxamide] | 91.1%
37 | C=CC(=O)NCc1cc(Cl)c2c(c1)OCCO2 [1-L05, N-[(8-chloro-2,3-dihydro-1,4-benzodioxin-6-yl)methyl]prop-2-enamide] | 112%
38 | C=CC(=O)NCCc1cnc2c(Cl)cnn2c1 [1-L06, N-(2-{3-chloropyrazolo[1,5-a]pyrimidin-6-yl}ethyl)prop-2-enamide] | 74.5%
39 | C=CC(=O)N1CCC(OC2CCCC2)CC1 [1-L07, 1-[4-(cyclopentyloxy)piperidin-1-yl]prop-2-en-1-one] | 96.8%
40 | C=CC(=O)N1CCOC2(CCCCCC2)C1 [1-L08, 1-{1-oxa-4-azaspiro[5.6]dodecan-4-yl}prop-2-en-1-one] | 73.9%
41 | C=CC(=O)N(Cc1ccc2c(c1)CCC2)Cc1c(C)noc1C [1-L09, N-[(2,3-dihydro-1H-inden-5-yl)methyl]-N-[(3,5-dimethyl-1,2-oxazol-4-yl)methyl]prop-2-enamide] | 92.1%
42 | C=CC(=O)NCc1cc(C2CC2)nn1C [1-L10, N-[(3-cyclopropyl-1-methyl-1H-pyrazol-5-yl)methyl]prop-2-enamide] | 92.5%
43 | C=CC(=O)NCC(=O)Nc1ccc2c[nH]nc2c1 [1-L11, N-{[(2H-indazol-6-yl)carbamoyl]methyl}prop-2-enamide] | 89.7%
44 | C=CC(=O)N1CCOCC1c1ncnn1Cc1ccccc1 (stereo not drawn) [1-L12, 1-[3-(1-benzyl-1H-1,2,4-triazol-5-yl)morpholin-4-yl]prop-2-en-1-one] | 63.7%
45 | C=CC(=O)N(Cc1cc(F)c(F)c(F)c1)C(C)C1CCCO1 (stereo not drawn) [1-L13, N-[1-(oxolan-2-yl)ethyl]-N-[(3,4,5-trifluorophenyl)methyl]prop-2-enamide] | 176%
46 | C=CC(=O)N1CC(C)(C)c2cc(Cl)ccc21 [1-L14, 1-(5-chloro-3,3-dimethyl-2,3-dihydro-1H-indol-1-yl)prop-2-en-1-one] | 1.22%
47 | C=CC(=O)N(Cc1cccs1)C1CCc2cnn(C(C)C)c2C1 (stereo not drawn) [1-L15, N-[1-(propan-2-yl)-4,5,6,7-tetrahydro-1H-indazol-6-yl]-N-[(thiophen-2-yl)methyl]prop-2-enamide] | 82.3%
48 | C=CC(=O)N(C)Cc1ccn(CC)n1 [1-L16, N-[(1-ethyl-1H-pyrazol-3-yl)methyl]-N-methylprop-2-enamide] | 75.2%
49 | C=CC(=O)NCc1ccc(C(=O)N2CCOCC2)cc1 [1-L17, N-{[4-(morpholine-4-carbonyl)phenyl]methyl}prop-2-enamide] | 81.2%
50 | C=CC(=O)N1CCC[C@H]1Cn1cc(C2CC2)nn1 [1-L18, 1-[(2S)-2-[(4-cyclopropyl-1H-1,2,3-triazol-1-yl)methyl]pyrrolidin-1-yl]prop-2-en-1-one] | 92.2%
51 | C=CC(=O)N1CCCc2cccc(F)c21 [1-L19, 1-(8-fluoro-1,2,3,4-tetrahydroquinolin-1-yl)prop-2-en-1-one] | 112%
52 | C=CC(=O)N1CCCC(Cc2noc(C)n2)C1 (stereo not drawn) [1-L20, 1-{3-[(5-methyl-1,2,4-oxadiazol-3-yl)methyl]piperidin-1-yl}prop-2-en-1-one] | 72.5%
53 | C=CC(=O)Nc1ccc2ccn(CCN(C)C)c2c1 [1-L21, N-{1-[2-(dimethylamino)ethyl]-1H-indol-6-yl}prop-2-enamide] | 113%
54 | C=CC(=O)N1CC(NC(=O)c2ccoc2CC)C(C)(C)C1 (stereo not drawn) [1-L22, N-[4,4-dimethyl-1-(prop-2-enoyl)pyrrolidin-3-yl]-2-ethylfuran-3-carboxamide] | 71.3%
